Measurements published in patent US7517874B2 (priority 2007, dated 2009).
Read-outs that look alike come from different tables or passages of the source.

Tests used:
rat CB2 receptor (rCB2) = molecular target: T1, rat CB2 receptor (rCB2) (Rattus norvegicus, UniProt Q9QZN9); experiment: cell-based; assay type: cell-based; settings: for +/− RCB2: agonist or inverse agonist at rCB2
T1 sequence (Q9QZN9 1-360): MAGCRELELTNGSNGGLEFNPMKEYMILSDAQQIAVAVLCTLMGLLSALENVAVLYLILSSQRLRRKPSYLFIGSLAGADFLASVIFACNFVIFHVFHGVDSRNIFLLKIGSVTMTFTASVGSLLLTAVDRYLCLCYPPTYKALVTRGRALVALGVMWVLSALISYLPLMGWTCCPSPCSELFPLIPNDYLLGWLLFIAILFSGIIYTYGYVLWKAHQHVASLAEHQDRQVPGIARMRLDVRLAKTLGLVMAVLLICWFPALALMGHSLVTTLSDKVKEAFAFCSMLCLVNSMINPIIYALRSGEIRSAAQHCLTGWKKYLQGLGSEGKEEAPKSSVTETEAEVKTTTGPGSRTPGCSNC
Procedure, shortened: (§1)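 Agonism or inverse agonism was assessed as change in intracellular cAMP in CHO-K1 cells expressing human CB1 or rat CB2 (genomic DNA, pcDNA3.1).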

[1] = molecular target: human CB1 receptor (hCB1) (Homo sapiens, UniProt P21554); experiment: cell-based; assay type: cell-based; settings: for +/− HCB1: agonist or inverse agonist at hCB1
Procedure, shortened: as §1

human CB1 receptor (hCB1), sequence (P21554 whole entry): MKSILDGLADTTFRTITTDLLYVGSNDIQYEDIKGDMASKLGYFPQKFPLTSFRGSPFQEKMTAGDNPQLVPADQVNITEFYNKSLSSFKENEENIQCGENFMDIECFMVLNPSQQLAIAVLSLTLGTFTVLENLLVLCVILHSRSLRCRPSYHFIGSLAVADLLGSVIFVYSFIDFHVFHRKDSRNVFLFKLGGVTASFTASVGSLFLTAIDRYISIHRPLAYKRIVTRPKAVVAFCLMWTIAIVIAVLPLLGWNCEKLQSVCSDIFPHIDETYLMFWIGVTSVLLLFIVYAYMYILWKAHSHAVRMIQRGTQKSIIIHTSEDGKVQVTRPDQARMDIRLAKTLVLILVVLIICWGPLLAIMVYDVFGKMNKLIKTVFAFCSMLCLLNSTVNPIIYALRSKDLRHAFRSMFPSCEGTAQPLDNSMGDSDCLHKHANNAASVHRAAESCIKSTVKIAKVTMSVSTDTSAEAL

Question: Which results are given for CNC(=O)[C@H](CC(C)(C)C)NC(=O)c1nc(-c2ccc(F)c(F)c2)n2c1CN(C)CCC2 [Compound 552, (S)-3-(3,4-diflurophenyl)-N-(4,4-dimethyl-1-(methylamino)-1-oxopentan-2-yl)-8-methyl-6,7,8,9-tetrahydro-5H-imidazo[1,5-a][1,4]diazepine-1-carboxamide]?
Answer: +/− RCB2 (rat CB2 receptor (rCB2)): +; +/− HCB1 [1]: +

Question: What does the source list for CNC(=O)[C@@H](NC(=O)c1nc(CCCN2CCCC2)n2c1CN(C)CC2)C(C)(C)C [Compound 308, (S)-N-(3,3-dimethyl-1-(methylamino)-1-oxobutan-2-yl)-7-methyl-3-(3-(pyrrolidin-1-yl)propyl)-5,6,7,8-tetrahydroimidazo[1,5-a]pyrazine-1-carboxamide]?
Answer: +/− RCB2 (rat CB2 receptor (rCB2)): −; EC50 [1]: > 10000 nM

Question: CNC(=O)[C@@H](NC(=O)c1nc(-c2ccccc2)n2c1CN(c1cnccn1)CC2)C(C)(C)C [Compound 301, (S)-N-(3,3-dimethyl-1-(methylamino)-1-oxobutan-2-yl)-3-phenyl-7-(pyrazin-2-yl)-5,6,7,8-tetrahydroimidazo[1,5-a]pyrazine-1-carboxamide] was tested. Which EC50 (rat CB2 receptor (rCB2)) did it give?
Answer: > 10 µM

Question: What about the EC50 [1] of the same molecule?
Answer: > 10000 nM

Question: For CNC(=O)[C@@H](NC(=O)c1nc(-c2cc(Cl)c(F)cc2F)n2c1CN(C)CCC2)C1CCCCC1 [Compound 542, (S)-3-(5-chloro-2,4-difluorophenyl)-N-(1-cyclohexyl-2-(methylamino)-2-oxoethyl)-8-mehtyl-6,7,8,9-tetrahydro-5H-imidazo[1,5-a][1,4]diazepine-1-carboxamide], which “+/− RCB2” value (rat CB2 receptor (rCB2)) is on record?
Answer: +

Question: And the “+/− HCB1” value [1]?
Answer: +

Question: O=C(Nc1ccccc1)c1nc(-c2ccccc2)n2c1CN(CCO)CC2 [Compound 151, 7-(2-hydroxyethyl)-N,3-diphenyl-5,6,7,8-tetrahydroimidazo[1,5-a]pyrazine-1-carboxamide] was tested. Which “+/− RCB2” value (rat CB2 receptor (rCB2)) did it give?
Answer: −

Question: And the EC50 ([1]; groups >100 nM-10 μM and >10 μM, cAMP, CHO-K1 hCB1, read-out: EC50 HCB1)?
Answer: > 10000 nM

Question: Which results are given for CC(C)CCNC(=O)c1nc(-c2ccc(Cl)cc2)n2c1CN(CC(C)C)CC2 [Compound 157, 3-(4-chlorophenyl)-7-isobutyl-N-isopentyl-5,6,7,8-tetrahydroimidazo[1,5-a]pyrazine-1-carboxamide]?
Answer: +/− RCB2 (rat CB2 receptor (rCB2)): −; EC50 [1]: > 10000 nM

Question: With CNC(=O)[C@@H](NC(=O)c1nc(-c2ccc(F)cc2)n2c1CN(C)CC2)C(C)(C)C [Compound 247, (S)-N-(3,3-dimethyl-1-(methylamino)-1-oxobutan-2-yl)-3-(4-fluorophenyl)-7-methyl-5,6,7,8-tetrahydroimidazo[1,5-a]pyrazine-1-carboxamide] as the molecule, how does the “+/− RCB2” value (rat CB2 receptor (rCB2)) read?
Answer: +

Question: And the EC50 [1]?
Answer: > 10000 nM

Question: With C=C(C)c1nc(C(=O)N[C@H](C(=O)NC)C(C)(C)C)c2n1CCN(C)C2 [Compound 267, (S)-N-(3,3-dimethyl-1-(methylamino)-1-oxobutan-2-yl)-7-methyl-3-(prop-1-en-2-yl)-5,6,7,8-tetrahydroimidazo[1,5-a]pyrazine-1-carboxamide] as the molecule, how does the “+/− RCB2” value (rat CB2 receptor (rCB2)) read?
Answer: +

Question: And the EC50 [1]?
Answer: > 10000 nM

Question: Which results are given for CNC(=O)[C@@H](NC(=O)c1nc(C2=CCC(C)CC2)n2c1CN(C)CCC2)C(C)(C)C (stereo partly drawn) [Compound 449, N-((S)-3,3-dimethyl-1-(methylamino)-1-oxobutan-2-yl)-8-methyl-3-(4-methylcyclohex-1-enyl)-6,7,8,9-tetrahydro-5H-imidazo[1,5-a][1,4]diazepine-1-carboxamide]?
Answer: +/− RCB2 (rat CB2 receptor (rCB2)): +; +/− HCB1 [1]: +

Question: How did the “+/− RCB2” value (rat CB2 receptor (rCB2)) turn out when CCCc1nc(C(=O)N[C@H](C(=O)NC)C(C)(C)C)c2n1CCCN(C)C2 [Compound 485, (S)-N-(3,3-dimethyl-1-(methylamino)-1-oxobutan-2-yl)-8-methyl-3-propyl-6,7,8,9-tetrahydro-5H-imidazo[1,5-a][1,4]diazepine-1-carboxamide] was run?
Answer: +

Question: What about the EC50 [1] of the same molecule?
Answer: > 10000 nM
